Assay results reported in PubChem BioAssay (NCI).
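Briefly, cells in 96-well plates were exposed to five compound concentrations for 48 h, and endpoints were estimated by linear interpolation. GI50: concentration for 50% inhibition of growth. TGI: concentration producing complete growth inhibition.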

Assays:
Assay in all cases: NCI tumour cell line growth inhibition, 48 h
LOX IMVI melanoma = system: LOX IMVI melanoma
HS 578T breast = system: HS 578T breast
SF-268 CNS = system: SF-268 CNS
OVCAR-8 ovarian = system: OVCAR-8 ovarian
SK-MEL-2 melanoma = system: SK-MEL-2 melanoma
HCC-2998 colon = system: HCC-2998 colon
SF-295 CNS = system: SF-295 CNS
UACC-62 melanoma = system: UACC-62 melanoma
MDA-MB-231 breast = system: MDA-MB-231 breast
MOLT-4 leukemia = system: MOLT-4 leukemia
K-562 leukemia = system: K-562 leukemia
UACC-257 melanoma = system: UACC-257 melanoma
OVCAR-3 ovarian = system: OVCAR-3 ovarian
DU-145 prostate = system: DU-145 prostate
UO-31 renal = system: UO-31 renal
NCI-H522 lung = system: NCI-H522 lung
A498 renal = system: A498 renal
TK-10 renal = system: TK-10 renal
HL-60(TB) leukemia = system: HL-60(TB) leukemia
HCT-15 colon = system: HCT-15 colon
A549 NSCLC = system: A549 NSCLC
BT-549 breast = system: BT-549 breast
786-0 renal = system: 786-0 renal
OVCAR-5 ovarian = system: OVCAR-5 ovarian
HT29 colon = system: HT29 colon
HOP-62 NSCLC = system: HOP-62 NSCLC
MDA-MB-468 breast = system: MDA-MB-468 breast
CAKI-1 renal = system: CAKI-1 renal
SNB-75 CNS = system: SNB-75 CNS
NCI/ADR-RES ovarian = system: NCI/ADR-RES ovarian
KM12 colon = system: KM12 colon
MCF7 breast = system: MCF7 breast
SR leukemia = system: SR leukemia
NCI-H23 lung = system: NCI-H23 lung
T-47D breast = system: T-47D breast
CCRF-CEM leukemia = system: CCRF-CEM leukemia
HOP-92 NSCLC = system: HOP-92 NSCLC
MALME-3M melanoma = system: MALME-3M melanoma
NCI-H226 lung = system: NCI-H226 lung
SW-620 colon = system: SW-620 colon
RXF 393 renal = system: RXF 393 renal
EKVX NSCLC = system: EKVX NSCLC
SK-MEL-28 melanoma = system: SK-MEL-28 melanoma
M14 melanoma = system: M14 melanoma
U251 CNS = system: U251 CNS
NCI-H460 lung = system: NCI-H460 lung
IGROV1 ovarian = system: IGROV1 ovarian
ACHN renal = system: ACHN renal
SF-539 CNS = system: SF-539 CNS
HCT-116 colon = system: HCT-116 colon
SK-MEL-5 melanoma = system: SK-MEL-5 melanoma
SNB-19 CNS = system: SNB-19 CNS
MDA-MB-435 = system: MDA-MB-435
SN12C renal = system: SN12C renal
COLO 205 colon = system: COLO 205 colon
OVCAR-4 ovarian = system: OVCAR-4 ovarian
RPMI-8226 leukemia = system: RPMI-8226 leukemia
SK-OV-3 ovarian = system: SK-OV-3 ovarian
PC-3 prostate = system: PC-3 prostate

SMILES: Cc1ccc(O)cc1Nc1nc(SCCN2CCOCC2)nc2c1cnn2CC(Cl)c1ccc(Br)cc1 (stereo not drawn)
- GI50 (LOX IMVI melanoma): 1.52 µM
- TGI (LOX IMVI melanoma): 3.49 µM
- GI50 (HS 578T breast): 0.832 µM
- TGI (HS 578T breast): 5.67 µM
- GI50 (SF-268 CNS): 7.04 µM
- TGI (SF-268 CNS): > 100 µM
- GI50 (OVCAR-8 ovarian): 4.45 µM
- TGI (OVCAR-8 ovarian): 21.2 µM
- GI50 (SK-MEL-2 melanoma): 11.2 µM
- TGI (SK-MEL-2 melanoma): 24.5 µM
- GI50 (HCC-2998 colon): 3.93 µM
- TGI (HCC-2998 colon): 15.2 µM
- GI50 (SF-295 CNS): 2.36 µM
- TGI (SF-295 CNS): 12 µM
- GI50 (UACC-62 melanoma): 3.05 µM
- TGI (UACC-62 melanoma): 15.5 µM
- GI50 (MDA-MB-231 breast): 2.5 µM
- TGI (MDA-MB-231 breast): 14.3 µM
- GI50 (MOLT-4 leukemia): 2.65 µM
- TGI (MOLT-4 leukemia): 14.5 µM
- GI50 (K-562 leukemia): 0.0575 µM
- TGI (K-562 leukemia): 2.73 µM
- GI50 (UACC-257 melanoma): 9.87 µM
- TGI (UACC-257 melanoma): 24.7 µM
- GI50 (OVCAR-3 ovarian): 11 µM
- TGI (OVCAR-3 ovarian): 64.9 µM
- GI50 (DU-145 prostate): 8.92 µM
- TGI (DU-145 prostate): > 100 µM
- GI50 (UO-31 renal): 2.25 µM
- TGI (UO-31 renal): 31.5 µM
- GI50 (NCI-H522 lung): 2.87 µM
- TGI (NCI-H522 lung): 16.5 µM
- GI50 (A498 renal): 6.88 µM
- TGI (A498 renal): 21.7 µM
- GI50 (TK-10 renal): 15.8 µM
- TGI (TK-10 renal): 32.3 µM
- GI50 (HL-60(TB) leukemia): 5.18 µM
- TGI (HL-60(TB) leukemia): 28.4 µM
- GI50 (HCT-15 colon): 2.82 µM
- TGI (HCT-15 colon): 15.8 µM
- GI50 (A549 NSCLC): 3.18 µM
- TGI (A549 NSCLC): 18.5 µM
- GI50 (BT-549 breast): 10.1 µM
- TGI (BT-549 breast): 23.2 µM
- GI50 (786-0 renal): 6.22 µM
- TGI (786-0 renal): 25.4 µM
- GI50 (OVCAR-5 ovarian): 3.96 µM
- TGI (OVCAR-5 ovarian): 18.9 µM
- GI50 (HT29 colon): 3.36 µM
- TGI (HT29 colon): 13.6 µM
- GI50 (HOP-62 NSCLC): 4.41 µM
- TGI (HOP-62 NSCLC): 30.2 µM
- GI50 (MDA-MB-468 breast): 1.84 µM
- TGI (MDA-MB-468 breast): 4.69 µM
- GI50 (CAKI-1 renal): 3.53 µM
- TGI (CAKI-1 renal): 33.1 µM
- GI50 (SNB-75 CNS): 1.24 µM
- TGI (SNB-75 CNS): 5.11 µM
- GI50 (NCI/ADR-RES ovarian): 3.13 µM
- TGI (NCI/ADR-RES ovarian): 17.3 µM
- GI50 (KM12 colon): 7.55 µM
- TGI (KM12 colon): 29.8 µM
- GI50 (MCF7 breast): 3.4 µM
- TGI (MCF7 breast): 17.3 µM
- GI50 (SR leukemia): 2.34 µM
- TGI (SR leukemia): 17.5 µM
- GI50 (NCI-H23 lung): 6.21 µM
- TGI (NCI-H23 lung): 19.5 µM
- GI50 (T-47D breast): 2.14 µM
- TGI (T-47D breast): > 100 µM
- GI50 (CCRF-CEM leukemia): 4.03 µM
- TGI (CCRF-CEM leukemia): 39.1 µM
- GI50 (HOP-92 NSCLC): 2.06 µM
- TGI (HOP-92 NSCLC): 8.12 µM
- GI50 (MALME-3M melanoma): 3.71 µM
- TGI (MALME-3M melanoma): 16.6 µM
- GI50 (NCI-H226 lung): 3.39 µM
- TGI (NCI-H226 lung): 20.4 µM
- GI50 (SW-620 colon): 14.6 µM
- TGI (SW-620 colon): 78.1 µM
- GI50 (RXF 393 renal): 0.282 µM
- TGI (RXF 393 renal): 3.71 µM
- GI50 (EKVX NSCLC): 3.93 µM
- TGI (EKVX NSCLC): 60.4 µM
- GI50 (SK-MEL-28 melanoma): 4.21 µM
- TGI (SK-MEL-28 melanoma): 17.4 µM
- GI50 (M14 melanoma): 2.85 µM
- TGI (M14 melanoma): 15.2 µM
- GI50 (U251 CNS): 4.85 µM
- TGI (U251 CNS): 17.9 µM
- GI50 (NCI-H460 lung): 4.26 µM
- TGI (NCI-H460 lung): 21.8 µM
- GI50 (IGROV1 ovarian): 2.06 µM
- TGI (IGROV1 ovarian): 6.08 µM
- GI50 (ACHN renal): 2.21 µM
- TGI (ACHN renal): 15.4 µM
- GI50 (SF-539 CNS): 3.05 µM
- TGI (SF-539 CNS): 13.9 µM
- GI50 (HCT-116 colon): 3.46 µM
- TGI (HCT-116 colon): 13.3 µM
- GI50 (SK-MEL-5 melanoma): 4.17 µM
- TGI (SK-MEL-5 melanoma): 15.9 µM
- GI50 (SNB-19 CNS): 5.93 µM
- TGI (SNB-19 CNS): 43.4 µM
- GI50 (MDA-MB-435): 4.72 µM
- TGI (MDA-MB-435): 21.5 µM
- GI50 (SN12C renal): 2.12 µM
- TGI (SN12C renal): 13.3 µM
- GI50 (COLO 205 colon): 17.6 µM
- TGI (COLO 205 colon): 42.2 µM
- GI50 (OVCAR-4 ovarian): 6.84 µM
- TGI (OVCAR-4 ovarian): > 100 µM
- GI50 (RPMI-8226 leukemia): 4.37 µM
- TGI (RPMI-8226 leukemia): 28.4 µM
- GI50 (SK-OV-3 ovarian): 13.6 µM
- TGI (SK-OV-3 ovarian): 73.4 µM
- GI50 (PC-3 prostate): 4.98 µM
- TGI (PC-3 prostate): 46.1 µM
